According to US20180230127A1 (PFIZER INC., priority 2015, published 2018):
Structures can show the parent of a compound that is named as a salt.

target: T1, human IRAK4 kinase domain (aa 154-460) (Homo sapiens, UniProt Q9NWZ3); assay: IRAK4 Enzymatic DELFIA Assay; format: biochemical; settings: 0.6 mM ATP (KM); 114 pM IRAK4 kinase domain; 200 nM substrate; 5% DMSO
T1 construct: human IRAK4 kinase domain (aa 154-460; GenBank ID AF445802)
T1 sequence (Q9NWZ3 154-460): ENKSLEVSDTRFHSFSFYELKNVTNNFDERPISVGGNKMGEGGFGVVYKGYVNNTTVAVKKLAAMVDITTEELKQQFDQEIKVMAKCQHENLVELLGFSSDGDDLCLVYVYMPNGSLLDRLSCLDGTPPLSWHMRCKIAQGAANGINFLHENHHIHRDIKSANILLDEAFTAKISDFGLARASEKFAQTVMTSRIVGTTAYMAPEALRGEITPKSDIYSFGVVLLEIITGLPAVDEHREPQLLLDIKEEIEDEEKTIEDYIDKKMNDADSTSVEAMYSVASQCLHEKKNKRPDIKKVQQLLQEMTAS
Description: IRAK4 Enzymatic DELFIA Assay.
This is an in vitro assay to measure IRAK4 enzymatic activity utilizing the DELFIA (Dissociation-Enhanced Lanthanide Fluorescent Immunoassay, Perkin-Elmer) platform, with the human IRAK4 kinase domain (aa 154-460) construct to characterize IRAK4 inhibitor and control compounds at 0.6 mM ATP (KM). The final amount of enzyme in the assay is 114 pM IRAK4 kinase domain, final concentration of substrate is 200 nM, and final concentration of DMSO is 5%.
The test compound was solubilized in DMSO to a stock concentration of 30 mM. The dose response plates were prepared with a 2 mM primary compound concentration, and then diluted in DMSO in a four-fold series for a total of 10 data points. Compounds were prepared as a 20-fold multiple of the final in-assay concentration
To begin the assay, 45 μL of reaction mixture containing 20 mM HEPES pH=7.5, 5 mM MgCl2, 0.0025% Brij-35, […], 228 pM phosphorylated recombinant human IRAK4 kinase domain (aa 154-460; GenBank ID AF445802) were aliquoted into Ultra-Clear Polypropylene, 96-well, U-Bottom Plates (Corning Life Sciences). 5 μL of test compound from the dose-response plate was added to the reaction mixture and incubated for 15 minutes at room temperature. Then 50 μL of 20 mM HEPES pH=7.5, 5 mM MgCl2, 0.0025% Brij-35, 600 μM ATP, and 400 nM ERM-biotinylated peptide (AGAGRDKYKTLRQIR) were added to start the reaction. The reaction was incubated for 90 minutes at room temperature and stopped by the addition of 25 μL 0.5M EDTA.
100 μL of the reaction mixture was transferred to a streptavidin coated detection plate (EvenCoat Streptavidin Coated Plates, 96-Well, R&D Systems) and incubated for 30 minutes at room temperature. The plates were washed 4 times with 100 μL per well of PBS containing 0.05% Tween-20. Plates were then incubated with 50 μL per well of antibody cocktail of Anti-pERM antibody (Cell Signaling Technology) diluted 1:5000, plus Anti-Rabbit IgG EuN1 at 0.242 μg/ml (Perkin-Elmer Life Sciences) in a solution of 10 mM MOPS pH=7.5, 150 mM NaCl, 0.05% Tween-20, 0.02% NaN3, 1% BSA, 0.1% Gelatin for 45 minutes. The plates were washed 4× with 100 μL per well of PBS containing 0.05% Tween-20. Then 100 μL per well of DELFIA Enhancement Solution were added to the plate and then read on an EnVision Model 2103 using a 340 nm excitation wavelength and a 665 nm emission detection.

Compound	IC50
Cc1cc(O[C@@H]2CCCN(C(=O)CO)C2)c2cc(OC(C)C)c(C(N)=O)cc2n1 [Example 42, 4-{[(3R)-1-(hydroxyacetyl)piperidin-3-yl]oxy}-2-methyl-6-(propan-2-yloxy)quinoline-7-carboxamide]	0.388 µM
CC(C)Oc1cc2c(OC3CCCNC3)nccc2cc1C(N)=O (stereo not shown) [Example 64, 1-(piperidin-3-yloxy)-7-(propan-2-yloxy)isoquinoline-6-carboxamide hydrochloride]	0.16 µM
CC(C)COc1cc2c(O[C@@H]3CCCNC3)ccnc2cc1C(N)=O [Example 76, 6-(2-methylpropoxy)-4-[(3R)-piperidin-3-yloxy]quinoline-7-carboxamide]	2.28 µM
CC(C)Oc1cc2c(O[C@H]3CCNC3)nccc2cc1C(N)=O [Example 79, 7-(propan-2-yloxy)-1-[(3S)-pyrrolidin-3-yloxy]isoquinoline-6-carboxamide]	1.47 µM
CCOc1cc2c(O[C@@H]3CCCN(C(=O)CC#N)C3)ccnc2cc1C(N)=O [Example 32, 4-{[(3R)-1-(cyanoacetyl)piperidin-3-yl]oxy}-6-ethoxyquinoline-7-carboxamide]	0.035 µM
CC(C)Oc1cc2c(O[C@@H]3CCCNC3)cccc2cc1C(N)=O [Example 69, (R)-3-isopropoxy-5-(piperidin-3-yloxy)-2-naphthamide trifluoroacetate]	0.036 µM
CC(C)Oc1cc2c(O[C@@H]3CCCN(C(=O)C4(CN)CC4)C3)ccnc2cc1C(N)=O [Example 15, 4-{[(3R)-1-{[1-(aminomethyl)cyclopropyl]carbonyl}piperidin-3-yl]oxy}-6-(propan-2-yloxy)quinoline-7-carboxamide formate]	0.999 µM
Cc1cc(O[C@@H]2CCCN(C(=O)CC#N)C2)c2cc(OC(C)C)c(C(N)=O)cc2n1 [Example 29, (R)-4-((1-(2-cyanoacetyl)piperidin-3-yl)oxy)-6-isopropoxy-2-methylquinoline-7-carboxamide]	0.148 µM
CC(=O)N1CCCC(Oc2ccnc3cc(C(N)=O)c(OC(C)C)cc23)C1 (stereo not shown) [Example 43, 4-[(1-acetylpiperidin-3-yl)oxy]-6-(propan-2-yloxy)quinoline-7-carboxamide]	0.399 µM
CC(C)Oc1cc2c(O[C@@H]3CCCNC3)ncc(Br)c2cc1C(N)=O [Example 54, 4-bromo-1-[(3R)-piperidin-3-yloxy]-7-(propan-2-yloxy)isoquinoline-6-carboxamide hydrochloride]	0.591 µM
CC(C)Oc1cc2c(O[C@@H]3CCCNC3)nccc2cc1C(N)=O [Example 53, 1-[(3R)-piperidin-3-yloxy]-7-(propan-2-yloxy)isoquinoline-6-carboxamide hydrochloride]	0.043 µM
NC(=O)c1cc2nccc(O[C@@H]3CCCNC3)c2cc1OC(F)F [Example 67, (R)-6-(difluoromethoxy)-4-(piperidin-3-yloxy)quinoline-7-carboxamide]	1.39 µM
CC(C)Oc1cc2c(O[C@@H]3CCCNC3)ccnc2cc1C(N)=O [Example 58, (R)-4-(piperidin-3-yloxy)-6-(propan-2-yloxy)quinoline-7-carboxamide hydrochloride]	0.135 µM
CC(C)Oc1cc2c(O[C@H]3CNCC[C@@H]3C)ccnc2cc1C(N)=O [Example 74, 4-{[(3R,4S)-4-methylpiperidin-3-yl]oxy}-6-(propan-2-yloxy)quinoline-7-carboxamide]	2.8 µM
CC(C)Oc1cc2c(O[C@H]3CNCC[C@@H]3C)nccc2cc1C(N)=O [Example 70, 1-{[(3R,4S)-4-methylpiperidin-3-yl]oxy}-7-(propan-2-yloxy)isoquinoline-6-carboxamide]	1.25 µM
CC(C)Oc1cc2c(O[C@@H]3CCCN(C(=O)[C@H](C)N)C3)ccnc2cc1C(N)=O [Example 7, 4-{[(3R)-1-(L-alanyl)piperidin-3-yl]oxy}-6-(propan-2-yloxy)quinoline-7-carboxamide formate]	0.143 µM

Compound	IC50
CCC(=O)N1CCC[C@@H](Oc2ccnc3cc(C(N)=O)c(OC(C)C)cc23)C1 [Example 10, 4-{[(3R)-1-propanoylpiperidin-3-yl]oxy}-6-(propan-2-yloxy)quinoline-7-carboxamide formate]	0.506 µM
CC(C)Oc1cc2c(O[C@H]3CCNC3)ccnc2cc1C(N)=O [Example 26, 6-(propan-2-yloxy)-4-[(3S)-pyrrolidin-3-yloxy]quinoline-7-carboxamide formate]	0.95 µM
CC(C)Oc1cc2c(O[C@H]3C[C@H]4CC[C@@H](C3)N4)nccc2cc1C(N)=O [Example 80, 1-[(3-endo)-8-azabicyclo[3.2.1]oct-3-yloxy]-7-(propan-2-yloxy)isoquinoline-6-carboxamide]	1.32 µM
CC(C)Oc1cc2c(O[C@@H]3CCCN(C(=O)C(F)(F)F)C3)ccnc2cc1C(N)=O [Example 9, 6-(propan-2-yloxy)-4-{[(3R)-1-(trifluoroacetyl)piperidin-3-yl]oxy}quinoline-7-carboxamide formate]	0.263 µM
COc1cc2c(O[C@@H]3CCCN(C(=O)CC#N)C3)ccnc2cc1C(N)=O [Example 30, (R)-4-((1-(2-cyanoacetyl)piperidin-3-yl)oxy)-6-methoxyquinoline-7-carboxamide]	0.028 µM
CC(C)Oc1cc2c(O[C@H]3CCN(C(=O)CC#N)C[C@H]3F)nccc2cc1C(N)=O [Example 3, 1-{[(3R,4S)-1-(cyanoacetyl)-3-fluoropiperidin-4-yl]oxy}-7-(propan-2-yloxy)isoquinoline-6-carboxamide formate]	0.308 µM
CC(C)Oc1cc2c(OC3CCN(C(=O)CO)CC3)nccc2cc1C(N)=O [Example 51, 1-{[1-(hydroxyacetyl)piperidin-4-yl]oxy}-7-(propan-2-yloxy)isoquinoline-6-carboxamide]	0.157 µM
N#CCC(=O)N1CCC[C@@H](Oc2ccnc3cc(C(N)=O)c(OC(F)F)cc23)C1 [Example 31, 4-{[(3R)-1-(cyanoacetyl)piperidin-3-yl]oxy}-6-(difluoromethoxy) quinoline-7-carboxamide]	0.101 µM
CC(C)Oc1cc2c(OC3CCNCC3)nccc2cc1C(N)=O [Example 60, 1-(piperidin-4-yloxy)-7-(propan-2-yloxy)isoquinoline-6-carboxamide]	0.092 µM
CC(C)Oc1cc2c(O[C@@H]3CCNC[C@@H]3F)ccnc2cc1C(N)=O [Example 20, 1-{[(3S.4R)-3-fluoropiperidin-4-yl]oxy}-7-(propan-2-yloxy)isoquinoline-6-carboxamide]	0.15 µM
CC(C)Oc1cc2c(O[C@H]3CCN(C(=O)CC#N)C3)nccc2cc1C(N)=O [Example 1, 1-{[(3S)-1-(cyanoacetyl)pyrrolidin-3-yl]oxy}-7-(propan-2-yloxy)isoquinoline-6-carboxamide formate]	0.053 µM
Cc1cc(O[C@@H]2CCCNC2)c2cc(OC(C)C)c(C(N)=O)cc2n1 [Example 68, (R)-6-isopropoxy-2-methyl-4-(piperidin-3-yloxy)quinoline-7-carboxamide trifluoroacetate]	1.3 µM
CC(C)Oc1cc2c(O[C@H]3CN(C(=O)CC#N)CC[C@@H]3C)nccc2cc1C(N)=O [Example 49, 1-{[(3R,4S)-1-(cyanoacetyl)-4-methylpiperidin-3-yl]oxy}-7-(propan-2-yloxy)isoquinoline-6-carboxamide]	0.029 µM
CC(C)Oc1cc2c(OC3CCCN(S(C)(=O)=O)C3)ccnc2cc1C(N)=O (stereo not shown) [Example 45, 4-{[1-(methylsulfonyl)piperidin-3-yl]oxy}-6-(propan-2-yloxy)quinoline-7-carboxamide]	0.254 µM
CC(C)Oc1cc2c(OC3CCNCC3)ccnc2cc1C(N)=O [Example 25, 4-(piperidin-4-yloxy)-6-(propan-2-yloxy)quinoline-7-carboxamide]	0.184 µM
